Test results taken from patent US5770420A, “Methods and products for the synthesis of oligosaccharide structures on glycoproteins, glycolipids, or as free molecules, and for the isolation of cloned genetic sequences that determine these structures” (The Regents of the University of Michigan, priority 1995, dated 1998).
Where two headings read alike, the source gives them in different places. One block for each compound: values may come before it.

How the values were obtained:
IgG-Sepharose [1] = assay: batch binding of conditioned medium to IgG-Sepharose, enzyme activity assayed
[2] = system: chimera Fuc-TC18: Fuc-TVI (1-85) plus Fuc-TIII (87-160) plus Fuc-TVI (160-359); conditions: acceptor 0.25-167 mM, 3 mM GDP-[14C]fucose (so in the source), pH 6.2, 37° C.
Experimental: (§1) Extracts for α(1,3)Fuc-T assays were prepared by harvesting COS-7 cells 72 hours after transfection, and solubilizing the cell pellets in 1% Triton X-100 (Kukowska-Latallo, J. F., et al (1990) Genes Devel., vol. 4, 1288-1303; Lowe, J. B., et al (1991) J. Biol. Chem., vol. 266, 17467-17477; Weston, B. W., et al (1992) J. Biol. Chem., vol. 267, 4152-4160; Weston, B. W., et al (1992) J. Biol. Chem. vol. 267, 24575-24584). Cell extract protein contents were determined with a micro BCA protein assay reagent (Pierce). Fucosyltransferase assays were performed in a final volume of 20 μl, and contained 25 mM sodium cacodylate (pH 6.2), 5 mM ATP, 10 mM L-fucose, 20 mM MnCl2 and 3 mM GDP-[^14 C]fucose. Cell extract protein concentration was varied to approximate linear reaction rate conditions (net [14C]-fucose incorporation rate of a less than twenty percent of total input GDP-[^14 C]fucose radioactivity). […] Reactions were incubated at 37° C. for one hour and were terminated by the addition of 20 μl ethanol, followed by dilution with […] water. The total radioactivity in each reaction was determined by subjecting an aliquot to scintillation counting. To assess the amount of radioactive fucose incorporated into product, an additional aliquot was applied to a Dowex 1×2-400 column in the formate form (Sasaki, K., et al (1994) J. Biol. Chem., vol. 269, 14730-14737; Natsuka, S., et al (1994) J. Biol. Chem., vol. 269, 16789-16794; Macher, B. A., et al (1991) Glycobiology, vol. 1, 577-584; Natsuka, S., and Lowe, J. B. (1994) Curr. Opin. Struct. Biol., vol. 4, 683-691). The flow through fraction plus an additional 2 ml of a water column "wash" was collected, pooled and subjected to scintillation counting. Control assays containing no added acceptor substrate were also completed in parallel.

[3] = system: chimera Fuc-TC19: Fuc-TIII (1-99) plus Fuc-TVI (99-159) plus Fuc-TIII (161-361); conditions: acceptor 0.25-167 mM, 3 mM GDP-[14C]fucose (so in the source), pH 6.2, 37° C.
Experimental: as §1

[4] = system: chimera Fuc-TC20: Fuc-TVI (1-98) plus Fuc-TIII (100-160) plus Fuc-TVI (160-359); conditions: acceptor 0.25-167 mM, 3 mM GDP-[14C]fucose (so in the source), pH 6.2, 37° C.
Experimental: as §1

[5] = system: chimera Fuc-TC2: Fuc-TIII (1-160) plus Fuc-TVI (160-359); conditions: acceptor 0.25-167 mM, 3 mM GDP-[14C]fucose (so in the source), pH 6.2, 37° C.
Experimental: as §1

[6] = system: chimera Fuc-TC4: Fuc-TVI (1-159) plus Fuc-TIII (161-361); conditions: acceptor 0.25-167 mM, 3 mM GDP-[14C]fucose (so in the source), pH 6.2, 37° C.
Experimental: as §1

[7] = molecular target: human Fuc-TVI (α(1,3)fucosyltransferase), wild type, SEQ ID NO:14 (Homo sapiens, UniProt P51993); conditions: read-out: Apparent Km LNB-I; acceptor 0.25-167 mM, 3 mM GDP-[14C]fucose (so in the source), pH 6.2, 37° C.
Experimental: as §1

IgG-Sepharose [8] = assay: batch binding of conditioned medium to IgG-Sepharose, washed matrix assayed for enzyme activity

Compound: protein A-α(1,2)fucosyltransferase fusion protein encoded by pPROTA-α(1,2)FTc (from UniProt P02976) (enzyme)
percent of released activity retained (IgG-Sepharose [1]): 100%

Compound: CC(=O)N[C@H]1C(O)O[C@H](CO)[C@@H](O[C@@H]2O[C@H](CO)[C@H](O)[C@H](O)[C@H]2O)[C@@H]1O (stereo partly shown) [LacNAc, N-acetyllactosamine]
Km ([2]; read-out: Apparent Km LacNAc): > 50 mM
Km ([3]; read-out: Apparent Km LacNAc): 1.1 mM
Km ([4]; read-out: Apparent Km LacNAc): > 50 mM
Km ([5]; read-out: Apparent Km LacNAc): > 50 mM
Km ([6]; read-out: Apparent Km LacNAc): 5.8 mM

Compound: protein A-fucosyltransferase fusion protein encoded by pPROTA-α(1,3/1,4)FTc (from UniProt P02976) (enzyme)
percent of released activity retained (IgG-Sepharose [1]): 100%
percent of activity recovered from the matrix after exhaustive washing (IgG-Sepharose [8]): 24%

Now from value to compound, other results behind:

percent of released activity retained (IgG-Sepharose [1]): 100%
Compound: protein A-Fuc-TIV fusion protein encoded by pPROTA-α(Fuc-TIV)c (from UniProt P02976) (enzyme)

percent of released activity retained (IgG-Sepharose [1]): 100%
Compound: protein A-Fuc-TV fusion protein encoded by pPROTA-Fuc-TVc (from UniProt P02976) (enzyme)

Km ([2]; read-out: Apparent Km LNB-I): > 50 mM
Km ([5]; read-out: Apparent Km LNB-I): > 50 mM
Km ([6]; read-out: Apparent Km LNB-I): > 50 mM
Km [7]: > 50 mM
Compound: CC(=O)N[C@H]1C(O)O[C@H](CO)[C@@H](O)[C@@H]1O[C@@H]1O[C@H](CO)[C@H](O)[C@H](O)[C@H]1O (stereo partly shown) [LNB-I, lacto-N-biose I]
Km ([3]; read-out: Apparent Km LNB-I): > 50 mM
Km ([4]; read-out: Apparent Km LNB-I): > 50 mM
